What was measured:
[1] = test system: LoVo colon cancer cells; test: MTT cytotoxicity test, 72 h; type: cell-based, human; conditions: read-out: IC50 LoVo colon
[2] = test system: PSN-1 3D spheroids; test: Cytotoxicity in 3D spheroid cultures, APH test; conditions: for IC50: read-out: IC50 PSN-1 3D, spheroids, 72 hours
[3] = test system: panel of human cancer cell lines (HCT-15, BCPAP, PSN-1, LoVo, 2008, C13*); test: MTT cytotoxicity test, average over the six cell lines; type: cell-based; conditions: for IC50: read-out: Average IC50, average of one compound over the six cell lines
[4] = test system: C13* ovarian cancer cells (cisplatin resistant); test: MTT cytotoxicity test, 72 h; type: cell-based, human; conditions: for Resistant factor (RF): IC50 resistant/parent line, C13*/2008; for IC50: read-out: IC50 C13* ovary, MTT, 72 h
[5] = test system: 2008 ovarian adenocarcinoma cells (cisplatin sensitive); test: MTT cytotoxicity test, 72 h; type: cell-based, human; conditions: read-out: IC50 2008 ovary
[6] = test system: HCT-15 colon cancer cells; test: MTT cytotoxicity test, 72 h; type: cell-based, human; conditions: read-out: IC50 HCT-15 colon
[7] = test system: BCPAP thyroid cancer cells; test: MTT cytotoxicity test, 72 h; type: cell-based, human; conditions: read-out: IC50 BCPAP thyroid
[8] = test system: HEK293 cells; test: MTT cytotoxicity test in non-cancerous cells; type: cell-based, human; conditions: for Selectivity index (SI) BCPAP: IC50 non-tumor (HEK293)/tumor cell line BCPAP; for Selectivity index (SI) LoVo: IC50 non-tumor (HEK293)/tumor cell line LoVo; for Selectivity index (SI) PSN-1: IC50 non-tumor (HEK293)/tumor cell line PSN-1; for IC50: read-out: IC50 HEK293, MTT, 72 h, non-cancerous cells
[9] = test system: PSN-1 pancreatic cancer cells; test: MTT cytotoxicity test, 72 h; type: cell-based, human; conditions: read-out: IC50 PSN-1 pancreas
[10] = test system: HEK293 cells; test: Mitochondrial membrane potential in non-cancerous cells; type: cell-based, human; conditions: 24 h, 1 µM
[11] = test system: HEK293 cells; test: ROS production in non-cancerous cells; type: cell-based, human; conditions: 10 µM
[12] = test system: PSN-1 cells; test: ROS production; type: cell-based, human; conditions: 10 μM, compared with antimycin A
[13] = biological target: T1, COX-2 (Homo sapiens, UniProt P35354); test: COX-2 inhibition in treated cells; type: cell-based; conditions: PSN-1 cells, 24 h, 1 μM
T1 sequence (P35354 18-604): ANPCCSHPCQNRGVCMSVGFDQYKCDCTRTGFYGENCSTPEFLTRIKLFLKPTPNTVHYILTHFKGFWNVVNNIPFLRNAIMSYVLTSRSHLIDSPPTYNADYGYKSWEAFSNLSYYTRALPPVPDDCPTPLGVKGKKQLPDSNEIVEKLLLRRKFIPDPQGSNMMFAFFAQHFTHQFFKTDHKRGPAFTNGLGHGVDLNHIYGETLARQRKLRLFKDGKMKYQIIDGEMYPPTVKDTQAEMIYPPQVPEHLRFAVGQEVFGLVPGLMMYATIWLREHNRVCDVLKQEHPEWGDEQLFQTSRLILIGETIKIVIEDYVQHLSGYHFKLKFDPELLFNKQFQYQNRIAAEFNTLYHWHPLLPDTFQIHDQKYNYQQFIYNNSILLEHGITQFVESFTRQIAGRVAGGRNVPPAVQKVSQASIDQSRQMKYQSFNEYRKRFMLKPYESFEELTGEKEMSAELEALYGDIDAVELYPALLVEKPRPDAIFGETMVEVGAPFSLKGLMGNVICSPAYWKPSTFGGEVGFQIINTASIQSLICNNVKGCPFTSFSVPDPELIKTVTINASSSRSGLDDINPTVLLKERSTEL

[14] = test system: LoVo OXP colon cancer cells; test: MTT cytotoxicity test, oxaliplatin resistant cells; type: cell-based, human; conditions: IC50 resistant/parent line
[15] = Stability in phosphate buffer at 37 °C monitored by HPLC; type: physicochemical; conditions: pH 7, HPLC, followed over days
[16] = test system: PSN-1 cells; test: Mitochondrial membrane potential; type: cell-based, human; conditions: 24 h, 1 μM

| SMILES | IC50 [1] [nM] | IC50 [2] [µM] | IC50 [3] [µM] | Resistant factor (RF) [4] | IC50 [4] [µM] | IC50 [5] [nM] | IC50 [6] [nM] | IC50 [7] [µM] | Selectivity index (SI) BCPAP [8] | Selectivity index (SI) LoVo [8] | Selectivity index (SI) PSN-1 [8] | IC50 [8] [µM] | IC50 [9] [µM] | other results |
| --- | --- | --- | --- | --- | --- | --- | --- | --- | --- | --- | --- | --- | --- | --- |
| [NH2][Pt]([NH2])([Cl])[Cl] [CDDP, Cisplatin] | 9150 ± 2070 | 52.6 ± 3.78 | 12.5 | 10.1 | 22.5 ± 3.15 | 2220 ± 1020 | 15300 ± 2630 | 7.38 ± 1.53 | 2.6 | 2.1 | 1.1 | 19.6 ± 2.33 | 18.2 ± 3.11 | – |
| O=C1[O][Pt]2([NH][C@@H]3CCCC[C@H]3[NH]2)[O]C1=O [OXP, oxaliplatin] | 1010 ± 340 | – | 3.23 | 2.0 | 3.06 ± 1 | 1530 ± 880 | 1150 ± 430 | 4.37 ± 1.07 | – | – | – | – | 8.25 ± 3.42 | – |
| [NH2][Pt]([NH2])([Cl])([Cl])([O]C(=O)CCCc1ccccc1)[O]C(=O)C(Cl)Cl [CPD, ctc-[Pt(NH3)2(PhB)(DCA)Cl2]] | 19 ± 10 | 0.95 ± 1.12 | 0.37 | 1.8 | 0.58 ± 0.06 | 330 ± 40 | 1060 ± 130 | 0.11 ± 0.03 | 14.2 | 82.1 | 15.6 | 1.56 ± 0.22 | 0.1 ± 0.02 | Effect on mitochondrial membrane potential [10]: barely effective; Induction of cellular ROS production [11]: barely effective; Times more active than cisplatin in PSN-1 3D spheroids ([2]; 72 hours): more than 50 fold; Average IC50, times lower than cisplatin ([3]; average over six cell lines): 34 fold; Average IC50, times lower than oxaliplatin ([3]; average over six cell lines): 9 fold; Average IC50, times more potent than CVD ([3]; average over six cell lines): 3 fold; Increase in cellular basal ROS production [12]: only slightly inferior to that elicited by antimycin A; COX-2 inhibition [13]: 8.4%; Resistant factor (RF) [14]: < 2; Stability in phosphate buffer solution [15]: stable; Cells with hypopolarized mitochondrial membrane potential [16]: 25–30% |
